# Like-named read-outs stand apart in the source and are kept apart here.
# Assays:
# [1] = CytoTox-1 cytotoxicity assay in Huh 7 cells; format: cell-based; details: human, parallel to HCV assay
# Method: Luciferase reporter (Replicon)/CytoTox-1 (Toxicity). Compounds were screened for anti-HCV activity using a luciferase (Luc) reporter gene endpoint in the HCV primary assay. The Luc reporter was used as an indirect measure of HCV replication as its activity is directly proportional to HCV RNA levels. Assessment of cytotoxicity is conducted in parallel. Drug stocks were prepared in DMSO unless otherwise specified and were diluted with tissue culture medium to the desired high-test concentration. For each assay, the compounds were then further diluted in tissue culture medium as required. After incubation, the cells were processed to derive, where applicable, EC50 and EC90 (compound concentration reducing replicon replication by 50% and 90% respectively). […] Anti-HCV activity was assessed with the replicon (genotype 1b or 2a) or HCVcc virus-derived Luc activity as readout; whereas the cytotoxic concentrations of drug reducing cell numbers was assessed by the CytoTox-1 cell proliferation assay according to manufacturer's protocol. […]
# Luciferase reporter (Replicon)/CytoTox-1 (Toxicity). […] Anti-HCV activity was assessed with the replicon (genotype 1b or 2a) or HCVcc virus-derived Luc activity as readout; whereas the cytotoxic concentrations of drug reducing cell numbers was assessed by the CytoTox-1 cell proliferation assay (Promega, Madison, Wis.) according to manufacturer's protocol. […]
# WNV = assay: microbe, parasite or virus in culture; format: cell-based; details: West Nile virus, Vero 76, Vero76 cells
# HFF = HFF cells
# HCMV = assay: Plaque-reduction assay for HCMV; format: cell-based, human cytomegalovirus; details: Human betaherpesvirus 5, HFF cells
# Method: (§1) Plaque-Reduction Assays for HSV-1, HSV-2, VZV and HCMV:
# (§2) Monolayers of cells were prepared in six-well plates and incubated at to allow the cells to reach confluency. Media was then aspirated from the wells and of virus was added to each of three wells to yield 20-30 plaques in each well. The virus was allowed to adsorb to the cells for 1 h and the plates were rocked gently every 15 min to redistribute the media. Compounds were diluted in maintenance cell culture media consisting of MEM with Earl's salts supplemented with 2% FBS, L-glutamine, penicillin, and gentamycin. Solutions were added to duplicate wells and the plates were incubated for various times, depending on the virus used. The plaque-reduction assay with HSV-1 strain F was performed in a similar manner but with Vero cells infected one day after plating. For HSV-1 and -2, the monolayers were stained with 1% crystal violet in 20% methanol and the unbound dye removed by washing with dH2O. For assays with HCMV and VZV, the cell monolayer was stained with 1% Neutral Red solution for 4 h then the stain was aspirated and the cells were washed with PBS. For all assays, plaques were enumerated using a stereomicroscope and the concentration of compound that reduced plaque formation by 50% (EC50) was interpolated from the experimental data. […]
# [2] = Solubility in water (rework study); format: physicochemical
# Method: A brief rework study for compound 1, (containing 1.6% benzoic acid per AUC, HPLC) was executed in 10 vol of water (1 g in 10 mL):
# All three experiments gave compound 1 with less than 0.1% benzoic acid (UAC, HPLC). The slurries were fluid, were easily stirred and filtration was fast. […] Without wishing to be bound by theory, a loss of NMT than 1% is expected (solubility 1 mg/mL). HPLC data for compound 1 were obtained with a method suitable for polar compounds using a Zorbax Eclipse Plus C18 column (water/ACN/TFA, 97.5/2.5/0.05). This is the same column used for steps 1 and 2.
# HHV-6B = assay: organism not typed; format: cell-based; details: MOLT-3 cells
# VZV = assay: Plaque-reduction assay for VZV; format: cell-based, varicella zoster virus; details: Human alphaherpesvirus 3, HFF cells
# Method: as §1, §2
# [3] = Parallel cytotoxicity assay in MEF cells; format: cell-based; details: mouse, parallel to MCMV assay
# Method: Every antiviral assay included a parallel cytotoxicity assay with the same cells used for each virus, the same cell number, the same drug concentrations, and the same incubation times to provide the same drug exposure. To ensure that the cytotoxicity of all compounds could be compared directly, a standard neutral red uptake cytotoxicity assay for all compounds in confluent HFF cells with a 7 d incubation period was performed.
# [4] = Cytotoxicity (CC50) in RAW cells; details: mouse
smiles,measurement,setting,value
"Cc1nc(N)c2c(C(N)=O)cn([C@@H]3O[C@H](CO)[C@@H](O)[C@H]3O)c2n1 [Compound 1, 4-amino-7-((2R,3R,4S,5R)-3,4-dihydroxy-5-(hydroxymethyl)tetrahydrofuran-2-yl)-2-methyl-7H-pyrrolo[2,3-d]pyrimidine-5-carboxamide]",CC50,[1],> 20 µM
same,EC50,WNV,> 100 µM
same,CC50,HFF; parallel to BKV assay,> 60 µM
same,CC50,HFF; parallel to HSV-2 assay,> 60 µM
same,CC50,HFF; parallel to VACV assay,> 60 µM
same,CC50,HFF; parallel to VZV assay,> 60 µM
same,EC50,HCMV,> 60 µM
same,solubility,[2],1000 µg/mL
same,EC50,HHV-6B,39.7 µM
same,EC50,VZV,> 60 µM
same,CC50,[3],> 100 µM
same,CC50,[4],114 µM

# Source: patent publication US9708359B2, “Pyrrolopyrimidine nucleosides and analogs thereof” (Chimerix, Inc., priority 2015, dated 2017)
